Key:
[1] = tested on: weed plants such as Sinapis alba, Chrysanthemum segetum, Avena sativa, Stellaria media, Echinochloa crus-galli, Lolium multiflorum, Setaria viridis, Abutilon …; assay: Pre-emergence effect on weeds (greenhouse pot test, visual scoring); type: in vivo; conditions: applied pre-emergence at a rate of 0.3 kg or less of active substance per hectare; scored after 3 to 4 weeks in comparison to untreated controls
[2] = tested on: weed plants such as Sinapis alba, Echinochloa crus-galli, Lolium multiflorum, Chrysanthemum segetum, Setaria viridis, Abutilon theophrasti, Amaranthus …; assay: Post-emergence effect on weeds (greenhouse pot test, visual scoring); type: in vivo; conditions: applied post-emergence (three-leaf stage) at a rate of 0.3 kg or less of active substance per hectare; scored after about 3 to 4 weeks in comparison to untreated controls

Compound	herbicidal action against weed plants (visual scoring of plant damage or emergence damage) [1]	herbicidal action against weed plants (effect scored visually) [2]
CCCOc1nn(C(=O)NS(=O)(=O)c2c(Cl)cc(C(F)(F)F)cc2I)c(=O)n1C1CC1 [Compound 1.848]	very good herbidical action	very good herbicidal action
COc1nn(C(=O)NS(=O)(=O)c2c(Cl)ccc(Cl)c2I)c(=O)n1C [Compound 1.849]	very good herbidical action	very good herbicidal action
CCOc1nn(C(=O)NS(=O)(=O)c2c(Cl)ccc(Cl)c2I)c(=O)n1C [Compound 1.850]	very good herbidical action	very good herbicidal action
CCCOc1nn(C(=O)NS(=O)(=O)c2c(Cl)ccc(Cl)c2I)c(=O)n1C [Compound 1.851]	very good herbidical action	very good herbicidal action
CC(C)Oc1nn(C(=O)NS(=O)(=O)c2c(Cl)ccc(Cl)c2I)c(=O)n1C [Compound 1.852]	very good herbidical action	very good herbicidal action
COc1nn(C(=O)NS(=O)(=O)c2c(Cl)ccc(Cl)c2I)c(=O)n1C1CC1 [Compound 1.853]	very good herbidical action	very good herbicidal action
CCOc1nn(C(=O)NS(=O)(=O)c2c(Cl)ccc(Cl)c2I)c(=O)n1C1CC1 [Compound 1.854]	very good herbidical action	very good herbicidal action
CCOc1nn(C(=O)NS(=O)(=O)c2ccc(C)c(F)c2I)c(=O)n1C [Compound 1.856]	very good herbidical action	very good herbicidal action
CCCOc1nn(C(=O)NS(=O)(=O)c2ccc(C)c(F)c2I)c(=O)n1C [Compound 1.857]	very good herbidical action	very good herbicidal action
Cc1ccc(S(=O)(=O)NC(=O)n2nc(OC(C)C)n(C)c2=O)c(I)c1F [Compound 1.858]	very good herbidical action	very good herbicidal action
COc1nn(C(=O)NS(=O)(=O)c2ccc(C)c(F)c2I)c(=O)n1C1CC1 [Compound 1.859]	very good herbidical action	very good herbicidal action
CCOc1nn(C(=O)NS(=O)(=O)c2ccc(C)c(F)c2I)c(=O)n1C1CC1 [Compound 1.860]	very good herbidical action	very good herbicidal action
CCCOc1nn(C(=O)NS(=O)(=O)c2ccc(C)c(F)c2I)c(=O)n1C1CC1 [Compound 1.861]	very good herbidical action	very good herbicidal action
COc1nn(C(=O)NS(=O)(=O)c2cc(C)c(C)cc2I)c(=O)n1C [Compound 1.862]	very good herbidical action	very good herbicidal action
CCOc1nn(C(=O)NS(=O)(=O)c2cc(C)c(C)cc2I)c(=O)n1C [Compound 1.863]	very good herbidical action	very good herbicidal action
CCCOc1nn(C(=O)NS(=O)(=O)c2cc(C)c(C)cc2I)c(=O)n1C [Compound 1.864]	very good herbidical action	very good herbicidal action
